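Assay format: 96-well plates, 48-hour exposure. GI50 marks 50% less growth. At the TGI there is no net growth.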
What was measured:
Assay in all cases: DTP human tumour cell line panel, 48 h
[1] = tested on: HCT-116 colon
[2] = tested on: NCI-H226 lung
[3] = tested on: COLO 205 colon
[4] = tested on: MCF7 breast
[5] = tested on: LOX IMVI melanoma
[6] = tested on: T-47D breast
[7] = tested on: IGROV1 ovarian
[8] = tested on: RPMI-8226 leukemia
[9] = tested on: SK-MEL-2 melanoma
[10] = tested on: OVCAR-5 ovarian

| Structure (SMILES) | TGI [1] | TGI [2] | TGI [3] | TGI [4] | TGI [5] | TGI [6] | TGI [7] | TGI [8] | TGI [9] | TGI [10] | GI50 [1] | GI50 [2] | GI50 [3] | GI50 [4] | GI50 [5] | GI50 [6] | GI50 [7] | GI50 [8] | GI50 [9] | GI50 [10] |
| --- | --- | --- | --- | --- | --- | --- | --- | --- | --- | --- | --- | --- | --- | --- | --- | --- | --- | --- | --- | --- |
| CNC1NC(=O)c2ccccc2N1Cc1ccc(F)cc1 (stereo not given) | > 100 µM | > 100 µM | > 100 µM | > 100 µM | > 100 µM | > 100 µM | > 100 µM | > 100 µM | > 100 µM | > 100 µM |  |  |  |  |  |  |  |  |  |  |
| CCC(C)/C=C(C)/C=C/C(=O)c1c(O)c(-c2ccc(O)cc2)c[nH]c1=O (stereo not given) | 13.1 µM | 22.9 µM | 19.5 µM | 15 µM | 13.2 µM | 17 µM | 15 µM | 17.6 µM | 11 µM | 23.5 µM | 3.39 µM | 8.07 µM | 7.2 µM | 2.9 µM | 3.49 µM | 3.22 µM | 2.59 µM | 3.45 µM | 3.53 µM | 6.1 µM |
| Cc1ccc2c(=O)[nH]sc2c1 | > 100 µM | 45.5 µM | 16.7 µM | 36.1 µM | 32.9 µM | 41.8 µM | 35.3 µM | 45.1 µM | > 100 µM | > 100 µM |  |  |  |  |  |  |  |  |  |  |
| O=C(Nc1ccc(Nc2ccncc2)cc1)c1ccc(Nc2ccnc3ccc([N+](=O)[O-])cc23)cc1 | > 100 µM | > 100 µM | > 100 µM | > 100 µM | > 100 µM | > 100 µM |  | > 100 µM | > 100 µM | > 100 µM | > 100 µM | > 100 µM | > 100 µM | > 100 µM | > 100 µM | > 100 µM |  | > 100 µM | > 100 µM | > 100 µM |
| Cc1cc(-c2nc3ccc(O)cc3s2)ccc1N | > 100 µM | > 100 µM | > 100 µM | > 100 µM | > 100 µM | > 100 µM | > 100 µM |  | > 100 µM | > 100 µM | 43.9 µM | 60.2 µM | > 100 µM | 56.5 µM | > 100 µM | 22.6 µM | 47.5 µM |  | > 100 µM | 82.6 µM |
| Cl.Fc1c[c-]c(-c2ccccn2)c(F)c1.[Pt].c1ccc([PH+](CC[PH+](c2ccccc2)c2ccccc2)c2ccccc2)cc1 |  | 1.13 µM |  | 1.1 µM |  | 1.39 µM |  | 0.249 µM | 0.756 µM | 0.919 µM |  | 0.184 µM |  | 0.0625 µM |  | 0.0912 µM |  | 0.0341 µM | 0.233 µM | 0.178 µM |
| CCc1nc2ccc(Cc3ccc(C(=O)NO)cc3)cc2c(=O)n1CCc1ccccc1 | 1.57 µM | 3.05 µM | 2.55 µM | 6.82 µM | 2.5 µM | 5.41 µM |  | 10.3 µM | 3.95 µM | 12.8 µM | 0.388 µM | 1.24 µM | 0.871 µM | 1.34 µM | 1.16 µM | 0.809 µM |  | 1.07 µM | 1.62 µM | 1.36 µM |
| Nc1ncc(-c2ccc(C(F)(F)F)cc2)c(NC2CCCCCC2)n1 | > 100 µM | > 100 µM | 36.7 µM | > 100 µM |  | > 100 µM | > 100 µM | 41.1 µM |  | > 100 µM | 20.2 µM | 12.9 µM | 19.5 µM | 27.5 µM |  | 18.3 µM | 19.5 µM | 8.91 µM |  | 45.6 µM |
| CCOC(=O)C#Cc1ccc(C#CC(=O)OCC)cc1 | 11.2 µM | > 23.7 µM | 16.5 µM | 10.6 µM | > 22.1 µM | > 100 µM | > 100 µM | > 25.3 µM |  | > 21.8 µM |  |  |  |  |  |  |  |  |  |  |
| COc1cc(-c2cc(-c3nc4ccccc4[nH]3)[nH]n2)cc(OC)c1OC | 16.8 µM | 7.26 µM | 15.6 µM | 10.3 µM |  | 7.61 µM | 15.4 µM | 4.16 µM |  | 32.7 µM | 3.16 µM | 1.14 µM | 3.98 µM | 2.79 µM |  | 1.11 µM | 2.34 µM | 1.2 µM |  | 13 µM |
| Cn1c2ccc([N+](=O)[O-])cc2c(=O)c2c(O)cc(O)cc21 |  | > 100 µM | > 100 µM | > 100 µM | > 100 µM | > 100 µM | 45.3 µM | > 100 µM |  | > 100 µM |  |  |  |  |  |  |  |  |  |  |
| Cc1nc(NC(=S)Nc2ccc(F)cc2)sc1C(=O)NNC(=S)Nc1ccc(F)cc1 | > 100 µM | 57.8 µM | 20 µM | 32.7 µM |  | 20.7 µM |  | 6.9 µM | 60.3 µM | 62.1 µM | 7.93 µM | 14.1 µM | 7.11 µM | 3.72 µM |  | 2.59 µM |  | 2.2 µM | 19.4 µM | 16.2 µM |
| N#CC(C#N)=CN1CCN(C(=O)c2ccccc2)C1=S | > 100 µM |  |  | 55.9 µM | > 100 µM | > 100 µM | > 100 µM | > 100 µM | 68.4 µM |  | 34 µM |  |  | 16.7 µM | > 100 µM | 89.2 µM | 28.2 µM | 35.3 µM | 18.4 µM |  |

— PubChem BioAssay (NCI)
